{"source": "paper PMC5945292", "about": "(Biochemistry, 2013)", "type_in_all_cases": "binding", "key": {"cytochrome P450 BM-3 [1]": {"molecular_target": "cytochrome P450 BM-3 (Priestia megaterium, UniProt P14779, R48Q)", "sequence (P14779 whole entry R48Q)": "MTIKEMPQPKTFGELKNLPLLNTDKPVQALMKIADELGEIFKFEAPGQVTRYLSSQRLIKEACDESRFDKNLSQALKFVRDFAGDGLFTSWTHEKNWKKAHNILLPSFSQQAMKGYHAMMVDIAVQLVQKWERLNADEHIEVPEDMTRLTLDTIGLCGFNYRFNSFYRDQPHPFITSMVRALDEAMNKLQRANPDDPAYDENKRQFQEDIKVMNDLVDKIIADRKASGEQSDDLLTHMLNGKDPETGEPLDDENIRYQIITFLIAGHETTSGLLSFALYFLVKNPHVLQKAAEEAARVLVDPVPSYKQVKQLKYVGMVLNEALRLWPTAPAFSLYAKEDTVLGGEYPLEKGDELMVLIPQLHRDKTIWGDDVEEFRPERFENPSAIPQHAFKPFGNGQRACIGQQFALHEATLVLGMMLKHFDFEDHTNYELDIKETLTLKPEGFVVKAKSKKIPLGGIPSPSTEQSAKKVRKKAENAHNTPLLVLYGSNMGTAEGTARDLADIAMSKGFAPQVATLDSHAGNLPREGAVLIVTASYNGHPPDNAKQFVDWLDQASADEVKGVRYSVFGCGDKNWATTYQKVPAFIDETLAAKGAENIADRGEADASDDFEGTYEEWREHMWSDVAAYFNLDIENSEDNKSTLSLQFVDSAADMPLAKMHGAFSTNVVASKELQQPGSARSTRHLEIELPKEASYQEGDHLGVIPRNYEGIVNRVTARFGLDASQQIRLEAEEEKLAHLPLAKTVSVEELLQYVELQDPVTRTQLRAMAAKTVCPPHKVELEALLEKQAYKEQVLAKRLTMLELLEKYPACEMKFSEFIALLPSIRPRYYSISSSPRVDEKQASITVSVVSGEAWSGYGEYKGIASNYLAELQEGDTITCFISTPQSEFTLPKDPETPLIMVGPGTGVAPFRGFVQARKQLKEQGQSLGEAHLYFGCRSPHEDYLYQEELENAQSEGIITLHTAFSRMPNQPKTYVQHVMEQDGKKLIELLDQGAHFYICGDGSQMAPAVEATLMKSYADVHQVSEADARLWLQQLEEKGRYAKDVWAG", "experiment": "spectral"}, "cytochrome P450 BM-3 [2]": {"molecular_target": "T1, cytochrome P450 BM-3 (Priestia megaterium, UniProt P14779)", "T1 sequence (P14779 1-1049)": "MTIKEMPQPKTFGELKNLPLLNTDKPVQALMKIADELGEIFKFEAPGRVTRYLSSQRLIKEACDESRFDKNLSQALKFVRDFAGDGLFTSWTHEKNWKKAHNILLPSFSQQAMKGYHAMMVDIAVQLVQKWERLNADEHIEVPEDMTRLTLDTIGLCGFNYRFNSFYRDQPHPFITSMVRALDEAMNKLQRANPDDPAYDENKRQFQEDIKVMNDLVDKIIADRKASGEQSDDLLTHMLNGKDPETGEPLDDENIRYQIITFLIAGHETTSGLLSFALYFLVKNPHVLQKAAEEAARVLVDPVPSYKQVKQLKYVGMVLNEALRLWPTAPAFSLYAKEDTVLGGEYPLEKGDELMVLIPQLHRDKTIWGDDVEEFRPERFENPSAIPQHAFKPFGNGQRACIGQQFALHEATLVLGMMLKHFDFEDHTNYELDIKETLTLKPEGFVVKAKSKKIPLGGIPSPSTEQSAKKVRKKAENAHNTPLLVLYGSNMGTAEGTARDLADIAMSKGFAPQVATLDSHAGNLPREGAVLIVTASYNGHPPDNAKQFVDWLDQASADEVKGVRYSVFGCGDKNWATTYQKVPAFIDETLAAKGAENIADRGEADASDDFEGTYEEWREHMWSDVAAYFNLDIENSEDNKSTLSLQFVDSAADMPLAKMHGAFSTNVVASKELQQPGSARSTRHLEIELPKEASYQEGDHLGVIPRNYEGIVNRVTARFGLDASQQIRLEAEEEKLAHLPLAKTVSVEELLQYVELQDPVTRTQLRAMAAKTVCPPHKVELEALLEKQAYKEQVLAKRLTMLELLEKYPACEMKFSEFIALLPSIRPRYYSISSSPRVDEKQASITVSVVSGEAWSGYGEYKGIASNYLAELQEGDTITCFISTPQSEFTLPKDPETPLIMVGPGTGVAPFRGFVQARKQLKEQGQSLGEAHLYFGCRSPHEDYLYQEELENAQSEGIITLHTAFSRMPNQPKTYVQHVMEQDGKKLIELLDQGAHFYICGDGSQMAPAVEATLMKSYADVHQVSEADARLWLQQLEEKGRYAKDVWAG", "experiment": "crystal structure at […] Å"}, "cytochrome P450 BM-3 [3]": {"molecular_target": "cytochrome P450 BM-3 (Priestia megaterium, UniProt P14779, R48K)", "sequence (P14779 whole entry R48K)": "as the sequence (P14779 whole entry R48Q) above, with Q48K counted along it", "experiment": "spectral"}}, "data": [{"smiles": "CCCCCCCCCCCCCCCC(=O)NCC(=O)O", "note": "[NPG, N-palmitoylglycine]", "values": [{"measurement": "Kd", "setting": "cytochrome P450 BM-3 [1]", "value": "7000 ± 700", "unit": "nM"}, {"measurement": "Kd", "setting": "cytochrome P450 BM-3 [2]", "value": "370 ± 50", "unit": "nM"}, {"measurement": "Kd", "setting": "cytochrome P450 BM-3 [3]", "value": "1200 ± 100", "unit": "nM"}]}]}
